Measurements reported in patent US20260022347A1, “TREATMENT AGENT FOR LUNG ADENOCARCINOMAS” (KEIO UNIVERSITY, priority 2022, published 2026).
“Also recorded” adds a separate entry of the source.

Legend:
[1] = test system: NKX2-1-negative lung adenocarcinoma organoid strains (KOR189, KOR134); assay: Growth of NKX2-1-negative lung adenocarcinoma organoids cultured with C59 (organoid area, micrographs); format: cell-based, human
Description: Porcupine (PORCN) is an acyl transferase localized to the endoplasmic reticulum which performs palmitoylation of Wnt protein. In this experimental example, the therapeutic effect of NKX2-1-negative lung adenocarcinoma was examined using C59 (CAS No. 1243243-89-1), a Porcupine inhibitor.
In addition, the number in the upper left corner of each image indicates the percentage of an area occupied by organoids cultured under each condition when an area occupied by organoids cultured in the absence of Wnt-3A is 1.

[2] = test system: Wnt target genes LGR5 and AXIN2; assay: Quantitative RT-PCR of Wnt target genes LGR5 and AXIN2 in organoids cultured with C59; format: cell-based, human
Description: In FIG. 10, the relative values of the expression levels of each gene with respect to the expression level of the GAPDH gene are shown as relative values, with the expression level in the absence of Wnt-3A (−Wnt) set to 1.

[3] = test system: Wnt-dependent (NKX2-1 negative) lung adenocarcinoma organoids, KOR80 and KOR97; assay: Tumor area of GFP-labeled lung adenocarcinoma organoids transplanted under the renal capsule of immunodeficient mice; format: in vivo; details: 50 mg/kg C59 orally twice a day, 10 days after transplantation and day 30 to 40; kidneys excised day 40; versus vehicle
Description: C59 (CAS No. 1243243-89-1) was used to examine the therapeutic effect of NKX2-1-negative lung adenocarcinoma in vivo.
FIG. 11 is a schematic view showing a schedule of this experiment. GFP-labeled lung adenocarcinoma organoids were transplanted under the renal capsule of immunodeficient mice. As the lung adenocarcinoma organoids, Wnt-dependent (NKX2-1 negative) lung adenocarcinoma organoids, KOR80 and KOR97, and Wnt-independent (NKX2-1-positive) lung adenocarcinoma organoids, KOR20 and KOR98, were used.
For 10 days after transplantation and from day 30 to day 40 after transplantation, 50 mg/kg of C59 or vehicle was administered orally twice a day. Subsequently, the mice were euthanized on day 40 after transplantation, and their kidneys were excised and observed. The tumor area was measured as the area of a GFP-positive region.
In addition, “vehicle” indicates the result of a control given vehicle, and “C59” indicates the result obtained by administering C59. In addition, in FIG. 13, “*” indicates a significant difference at p<0.05, “**” indicates a significant difference at p<0.01, and “N.S.” indicates no significant difference.

[4] = presence of Wnt-3A and C59 (+Wnt+C59)

Compound: Cc1cc(-c2ccc(CC(=O)Nc3ccc(-c4cccnc4)cc3)cc2)ccn1 [C59]
- growth of NKX2-1-negative lung adenocarcinoma organoids ([1]; absence of Wnt-3A, presence of C59 (-Wnt+C59), KOR189, KOR134): growth inhibition; also recorded: inhibited the growth
- growth of NKX2-1-negative lung adenocarcinoma organoids after addition of exogenous Wnt-3A to C59 treatment [1, 4]: counteracted the effect of the C59 treatment
- expression levels of Wnt target genes (LGR5, AXIN2) ([2]; -Wnt+C59 relative to -Wnt, normalised to GAPDH, KOR189, KOR134, KOR97): reduced the expression levels
- expression levels of Wnt target genes after addition of exogenous Wnt-3A to C59 treatment [2, 4]: restoring the expression levels
- tumor area (GFP-positive region) [3]: significantly reduced the tumor area
